Publication PMC9186373, “Design, synthesis, and biological evaluation of novel carbazole derivatives as potent DNMT1 inhibitors with reasonable PK properties” (Journal of Enzyme Inhibition and Medicinal Chemistry, 2022)
Where two headings read alike, the source gives them in different places.

Assays:
DNMT3B/3L = experiment: Methyltransferase enzymatic selectivity profiling, DNMT3B/3L; format: biochemical; conditions: 50 µM; for inhibitory activity against DNMT3B/3L: Figure 3; for Relative selectivity index of DNMT1 vs DNMT 3B/3L: 1 - selected enzyme inhibition/DNMT1 inhibition
Experimental: (§1) In addition to DNMT1, there are many other methyltransferases that can bind with S-adenosyl-L-methionine (SAM) to facilitate transmethylation reactions[24]^,[25]. To investigate the selectivity of these potent compounds for DNMT1, we then evaluated the inhibitory activities against DNMT1 and other important methyltransferases at the concentration of 50 µM, including DNMT3A/3L, DNMT3B/3L, and other SAM-dependent enzymes[1]^,[2]^,[26], such as EZH2[27], LSD1[28], G9a (histone H3 lysine 9 methyltransferase)[29].
(§2) Here, the selectivity of non-nucleoside DNMT1 inhibitors is somewhat predictable because other methyltransferases mentioned above catalyse different substrates and share very low homology with DNMT1, even in their catalytic domain[30–32]. Subsequently, the screened compounds were evaluated in a dose-dependent assay against HCT116 (human colon cancer cell line) and A549 (human lung carcinoma cell line).
(§3) 493 Relative selectivity index
(§4) 494 Relative selectivity index of DNMT1 is calculated by formula: DNMT1-selectivity
(§5) 495 index =1 - selected enzyme inhibition/DNMT1 inhibition. The closer
(§6) 496 that this value is to 1 or even more than 1, the better DNMT1-selectivity the of the
(§7) 498 Table S1. Relative selectivity index of DNMT1
Cpd. […]

[1] = tested on: G9a (histone H3 lysine 9 methyltransferase); experiment: Methylation inhibition assay (AlphaLisa), G9a; format: biochemical; conditions: 50 µM; for inhibitory activity against G9a: Figure 3; for Relative selectivity index of DNMT1 vs G9a: 1 - selected enzyme inhibition/DNMT1 inhibition
Experimental: (§8) All the compounds were first screened using an ELISA EpiQuik DNA methyltransferase (DNMT) activity/inhibitor assay kit (Epigentek). To measure the effects of the compounds on human DNMT1 activity, 200 nM purified DNMT1 was incubated with 50 µM and 100 µM of the different compounds and S-adenosylmethionine in the DNMT assay buffer in the assay plate at 37 °C for 2 h[36]. Next, every sample was incubated with the capture and detection antibody, followed by incubation with developer solution for 10 min at room temperature. The absorbance was measured at 450 nm using a POLARstar Omega microplate reader (BMG). S-Adenosylhomocysteine (AdoHcy) was used as a positive control. Methylation inhibition assays for EZH2, LSD, and G9a were performed in modified Tris, pH 9.0, buffer using AlphaLisa technology. An amount of 10 µL of the reaction system contained a corresponding concentration of SAM (Sigma) (EZH2 50 µM, LSD 50 µM, and G9a 50 µM), which was the Km value in each enzymatic reaction, plus 100 nM biotinylated peptide H3 (1–21) (synthesis by GLChina) and the relevant enzyme concentration (0.03 nM EZH2, 0.03 nM LSD, and 0.03 nM G9a). The proteins were preincubated with various compound concentrations for 15 min at room temperature before the substrate and SAM were added. After 60 min of incubation at room temperature, acceptor and donor AlphaLisa beads were added according to the manufacturer’s recommendations. The signals were read in Alpha mode with an EnSpire multimode plate reader (PerkinElmer). IC50 values were derived by fitting the data for the inhibition percentage to a dose-response curve by non-linear regression in GraphPad Prism 5.0[20].
as §1, §3, §4, §5, §6, §7
Cpd. […]

LSD1 = experiment: Methylation inhibition assay (AlphaLisa), LSD1; format: biochemical; conditions: 1 - selected enzyme inhibition/DNMT1 inhibition; 50 µM
Experimental: as §8, §1, §3, §4, §5, §6, §7
Cpd. […]

[2] = tested on: HCT116 (human colon cancer cells); experiment: MTT assay, HCT116; format: cell-based
Experimental: (§9) The human lung cancer cells (A549) and human colon cancer cells (HCT116) were cultured in an RPMI-1640 medium containing 10% FBS, 100 U/mL streptomycin, and 100 U/mL penicillin at 37 °C in a humidified atmosphere with 5% CO2. All compounds were dissolved in DMSO and stock solutions were stored at −20 °C. Reagents were freshly diluted to the marked concentrations with a culture medium before use. DMSO concentration in experimental conditions never exceeded 0.1% (v/v). All cell lines were provided by the cell laboratory, School of pharmaceutical sciences, Guangzhou Medical University.
(§10) Cell viability was detected using an MTT assay kit. Cells were seeded into 96-well plates at a density of ∼1.0 × 10^4/well. 24 h later, sextuplicate wells were treated with media and new compounds at a fixed concentration (50 µM). After 24, 48, and 72 h, the drug-containing medium was replaced by a 100 µL fresh medium with 5 mg/mL MTT solution. After 4 h of incubation, the medium with MTT was removed, and 100 µL of DMSO was added to each well. The plates were gently agitated until the purple formazan crystals were dissolved, and the OD490 was determined using a […] (Olympus BX53, Japan). The data were calculated and plotted as the percent viability compared to the control.

DNMT3A/3L = experiment: Methyltransferase enzymatic selectivity profiling, DNMT3A/3L; format: biochemical; conditions: 1 - selected enzyme inhibition/DNMT1 inhibition; 50 µM
Experimental: as §1, §2, §3, §4, §5, §6, §7
Cpd. […]

[3] = tested on: A549 (human lung cancer cells); experiment: MTT assay, A549; format: cell-based
Experimental: as §9, §10

human DNMT1 = experiment: ELISA EpiQuik DNA methyltransferase (DNMT) activity/inhibitor assay; format: biochemical; conditions: 200 nM purified DNMT1, EpiQuik kit; for Inh% at 50 μM: 50 μM compound; for Inh% at 100 μM: 100 μM compound
Experimental: as §8
DNMT1 inhibition test was performed on 30 candidates to verify their biochemical activities. The EpiQuik DNA methyl-transferase (DNMT) activity/inhibitor assay kit (Epigentek) was used to identify the activity of synthetic compounds.

EZH2 = experiment: Methylation inhibition assay (AlphaLisa), EZH2; format: biochemical; conditions: 50 µM; for inhibitory activity against EZH2: Figure 3; for Relative selectivity index of DNMT1 vs EZH2: 1 - selected enzyme inhibition/DNMT1 inhibition
Experimental: as §8, §1, §3, §4, §5, §6, §7
Cpd. […]

DNMT1 = DNMT1 (Homo sapiens, UniProt P26358); experiment: H3-labelled radioactive methylation assay; format: biochemical; conditions: H3-labeled radioactive methylation assay; 40 nM DNMT1
Experimental: The DNMT1 radioactive methylation inhibition assays were performed in 30 µL reactions containing 0.1 µM adenosyl-L-methionine S-[methyl-^3H] (^3H-SAM, ^15 Ci/mmol, PerkinElmer), 0.25 µg/mL poly (dI-dC)·poly (dI-dC) (Sigma), 40 nM DNMT1 in 50 mM Tris-HCl, pH 8.0, 1 mM DTT, 5% glycerol, and 100 µg/mL BSA. The proteins were preincubated with a range of compound concentrations for 15 min at room temperature before adding the substrate and [^3H] SAM. After 60 min of incubation at 37 °C, the reaction systems were transferred to a MultiScreen HTS filter plate (Millipore), and the plate was washed 3 times with doubly distilled H2O via a vacuum. The radioactivity was determined by liquid scintillation counting (MicroBeta, PerkinElmer). IC50 values were derived by fitting the data for the inhibition percentage to a dose-response curve by non-linear regression in GraphPad Prism 5.0.
To quantitatively analyse DNMT1 inhibitory effect, the H^3-labelled radioactive methylation assay was conducted to measure the methyltransferase activity of DNMT1 at a range of concentrations for these compounds.

[4] = HCT-116, 24 h, read-out: Inh % at 50 μM, HCT116, 24 h
[5] = HCT-116, 48 h, read-out: Inh % at 50 μM, HCT116, 48 h
[6] = HCT-116, 72 h, read-out: Inh % at 50 μM, HCT116, 72 h
[7] = 24 h, read-out: Inh % at 50 μM, A549, 24 h
[8] = 48 h, read-out: Inh % at 50 μM, A549, 48 h
[9] = 72 h, read-out: Inh % at 50 μM, A549, 72 h

DNMT1, sequence (P26358 whole entry): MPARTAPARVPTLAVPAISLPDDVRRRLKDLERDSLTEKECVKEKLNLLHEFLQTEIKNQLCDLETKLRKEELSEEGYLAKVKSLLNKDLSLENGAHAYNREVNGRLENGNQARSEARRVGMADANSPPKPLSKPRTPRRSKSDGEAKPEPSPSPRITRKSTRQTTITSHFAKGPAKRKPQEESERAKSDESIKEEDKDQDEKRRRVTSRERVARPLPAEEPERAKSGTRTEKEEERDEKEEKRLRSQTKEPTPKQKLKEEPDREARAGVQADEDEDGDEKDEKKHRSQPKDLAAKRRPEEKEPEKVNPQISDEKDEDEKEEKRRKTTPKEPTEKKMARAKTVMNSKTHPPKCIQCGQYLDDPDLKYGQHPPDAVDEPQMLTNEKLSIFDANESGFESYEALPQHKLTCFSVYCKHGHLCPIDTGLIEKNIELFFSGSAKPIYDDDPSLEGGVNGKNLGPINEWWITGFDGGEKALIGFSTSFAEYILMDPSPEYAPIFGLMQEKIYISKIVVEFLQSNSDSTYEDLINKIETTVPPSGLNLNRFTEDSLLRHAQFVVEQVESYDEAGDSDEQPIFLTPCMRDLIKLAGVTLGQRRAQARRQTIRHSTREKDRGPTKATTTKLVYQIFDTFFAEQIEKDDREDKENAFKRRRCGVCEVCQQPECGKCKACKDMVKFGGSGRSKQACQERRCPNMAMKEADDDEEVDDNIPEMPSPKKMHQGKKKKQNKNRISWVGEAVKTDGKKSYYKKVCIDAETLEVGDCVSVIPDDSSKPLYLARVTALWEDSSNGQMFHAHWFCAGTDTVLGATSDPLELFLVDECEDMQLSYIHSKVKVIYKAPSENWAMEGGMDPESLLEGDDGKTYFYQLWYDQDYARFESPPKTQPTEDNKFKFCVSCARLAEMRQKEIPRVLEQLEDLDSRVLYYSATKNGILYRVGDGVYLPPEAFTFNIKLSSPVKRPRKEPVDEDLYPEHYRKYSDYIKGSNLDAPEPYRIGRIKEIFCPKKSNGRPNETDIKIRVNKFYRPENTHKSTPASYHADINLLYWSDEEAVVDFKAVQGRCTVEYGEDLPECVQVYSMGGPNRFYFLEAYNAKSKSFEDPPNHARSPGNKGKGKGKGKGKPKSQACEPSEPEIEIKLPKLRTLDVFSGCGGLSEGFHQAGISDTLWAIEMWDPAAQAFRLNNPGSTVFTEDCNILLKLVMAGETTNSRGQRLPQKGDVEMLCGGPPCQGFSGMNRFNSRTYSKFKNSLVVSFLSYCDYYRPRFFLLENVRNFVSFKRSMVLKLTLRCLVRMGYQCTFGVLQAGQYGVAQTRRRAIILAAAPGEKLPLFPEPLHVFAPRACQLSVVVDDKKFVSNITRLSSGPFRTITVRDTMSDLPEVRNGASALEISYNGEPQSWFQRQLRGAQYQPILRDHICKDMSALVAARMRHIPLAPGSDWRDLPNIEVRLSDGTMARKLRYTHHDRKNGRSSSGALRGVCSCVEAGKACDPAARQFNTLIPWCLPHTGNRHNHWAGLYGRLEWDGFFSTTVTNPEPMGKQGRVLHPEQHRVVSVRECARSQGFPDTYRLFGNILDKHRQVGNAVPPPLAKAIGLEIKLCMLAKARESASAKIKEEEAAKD

Row | inhibitory activity against DNMT3B/3L (DNMT3B/3L) | Relative selectivity index of DNMT1 vs DNMT 3B/3L (DNMT3B/3L) | inhibitory activity against G9a [1] | Relative selectivity index of DNMT1 vs G9a [1] | Relative selectivity index of DNMT1 vs DNMT 3A/3L (DNMT3A/3L) | Inh% at 50 μM (human DNMT1) [%] | Inh% at 100 μM (human DNMT1) [%] | melting point [°C] | IC50 (DNMT1) [µM] | SMILES | Relative selectivity index of DNMT1 vs LSD1 (LSD1) | inhibition at 50 µM [2, 4] [%] | inhibition at 50 µM [2, 5] [%] | inhibition at 50 µM [2, 6] [%] | inhibition at 50 µM [3, 7] [%] | inhibition at 50 µM [3, 8] [%] | inhibition at 50 µM [3, 9] [%] | inhibitory activity against EZH2 (EZH2) | Relative selectivity index of DNMT1 vs EZH2 (EZH2)
1 | hardly any inhibitory activities | 1.15 | hardly any inhibitory activities | 0.84 | 0.49 | 82 | 100 | 137 to 139 | 28 | OC(CNCCc1c[nH]c2ccccc12)Cn1c2ccccc2c2cc(F)ccc21 (stereo not shown) [WK-1, 1-((2-(1H-indol-3-yl)ethyl)amino)-3-(3-fluoro-9H-carbazol-9-yl)propan-2-ol] | 0.18 | 90.9 | 88 | 94.9 | 88.2 | 78.6 | 87.6 | hardly any inhibitory activities | 0.93
2 | hardly any inhibitory activities | 1.28 | hardly any inhibitory activities | 0.91 | 0.68 | 82 | 90 | 143 to 145 | 19 | Oc1ccc(CCNCC(O)Cn2c3ccc(F)cc3c3cc(F)ccc32)cc1 (stereo not shown) [WK-13, 4-(2-((3-(3,6-Difluoro-9H-carbazol-9-yl)-2-hydroxypropyl)amino)ethyl) phenol] | 0.33 | – | 86.3 | 93.2 | – | 69.2 | 84.1 | hardly any inhibitory activities | 1.01
3 | – | 1.29 | – | 0.91 | 0.67 | 78 | 93 | 136 to 138 | 9.2 | CC(CO)NCC(O)Cn1c2ccc(F)cc2c2cc(F)ccc21 (stereo not shown) [WK-19, 2-((3-(3,6-Difluoro-9H-carbazol-9-yl)-2-hydroxypropyl)amino)propan-1-ol] | 0.29 | 5.6 | 59.4 | 88.3 | 7.9 | 68.4 | 79.9 | – | 1.01
